Assay results from patent publication US20260250322A1, “NEW PEPTIDES AS SELECTIVE IL-23 RECEPTOR INHIBITORS” (SANOFI, priority 2023, published 2026).
Bridge positions count the residues as written; N and C are the ends. Square brackets hold non-standard residues; d marks the D form. Peptide text beside a SMILES is read from it. Trp(1-Me) = Cn1cc(C[C@H](N)C(=O)O)c2ccccc21; 1Nal = N[C@@H](Cc1cccc2ccccc12)C(=O)O; 2Nal = N[C@@H](Cc1ccc2ccccc2c1)C(=O)O; αMeL = CC(C)C[C@](C)(N)C(=O)O; Thp = NC1(C(=O)O)CCOCC1; Aib = CC(C)(N)C(=O)O

Legend:
human IL-23R = target: T1, human IL-23R (Homo sapiens, UniProt Q5VWK5); test: Human ELISA IL-23/IL-23R binding inhibition; details: human IL-23 coated, recombinant human IL-23R-Fc chimera
T1 sequence (Q5VWK5 24-355 limits assumed): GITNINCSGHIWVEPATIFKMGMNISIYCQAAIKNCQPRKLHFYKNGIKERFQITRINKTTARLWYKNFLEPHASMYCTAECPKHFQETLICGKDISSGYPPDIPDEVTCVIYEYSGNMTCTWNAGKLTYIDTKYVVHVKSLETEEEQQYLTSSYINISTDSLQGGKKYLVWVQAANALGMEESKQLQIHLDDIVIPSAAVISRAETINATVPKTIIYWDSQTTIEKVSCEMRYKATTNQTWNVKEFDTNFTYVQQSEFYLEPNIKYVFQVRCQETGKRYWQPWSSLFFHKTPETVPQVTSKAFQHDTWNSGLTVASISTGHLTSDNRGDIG
Method: Antagonism of peptide compounds for human interleukin-23 receptor inhibitors, was determined by an ELISA assay.
A 384-well plate was coated with 50 μl/well of human IL-23 at a final concentration of 1 μg/ml and incubated overnight at 4° C. The wells were washed 3 times with 80 μl wash buffer and blocked with 80 μl blocking buffer for 60 minutes at room temperature and washed again. 20 μl of serially diluted test peptides was added to each well and subsequently 20 μl of recombinant human IL-23R-Fc chimera at final concentration of 0.1 μg/ml. The plate was incubated for 60 minutes at room temperature. After the wells were washed, bound IL-23R-Fc was detected with goat anti-hu-lgG1-HRP antibody. Signals were visualized with QuantaBlu Fluorogenic Peroxidase Substrate.

[1] = Chemical stability (relative purity loss) of peptide compounds in buffer formulations; format: physicochemical
Method: Purity of a compound batch was determined through UHPLC/MS prior to chemical stability measurement using Method A.
For stability assessment, the target concentration was 300 μM pure compound. Therefore, solutions from solid samples were prepared in the following buffer systems with a concentration of ~300 µM compound based on the previously determined % purity. The solid samples were obtained by drying down aliquots of a freshly prepared acetonitrile stock solution using a THERMO SPEEDVAC vacuum centrifuge. The dry down time was 3 hours.
The following buffer systems were applied: • Solubility buffer system A) 100 mM phosphate buffer pH 7.4. • Solubility buffer system B) 100 mM phosphate buffer pH 6.5. • Solubility buffer system C) 100 mM HCl pH 1.2.
Prepared solutions were filtered through […] pore size and filled into sterilized glass containers under laminar flow conditions.
[…] After this time course, the samples were centrifuged for 15 min at 2500 RCF. Then 1.5 μl of the undiluted supernatant were analysed with UHPLC-UV.
The chemical stability was rated through the relative loss of purity calculated by the equation:
[(purity after 0 hours at 37° C.)(purity after 24 hours at 37° C.)]/(purity after 0 hours at 37° C.)]*100%.
The purity is calculated as [(peak area peptide)/(total peak area)]*100%.
Buffer composition: 100 mM HCl pH 1.2, 100 mM phosphate buffer pH 6.5, 100 mM phosphate buffer pH 7.4

[2] = system: IL-23 induced STAT3 signaling; test: Inhibition of IL-23 induced STAT3 signaling in HEK-Blue IL-23 cells (SEAP reporter); format: cell-based; details: human IL-23 0.25 ng/ml, read-out: Inhibition of IL-23 induced pSTAT3 (IC50 nM)
From the text: HEK-Blue™ IL-23 cells (Invivogen) are designed for the detection of bioactive human (hIL-23) and murine IL-23 (mIL-23) by monitoring the activation of the STAT3 pathway. Binding of IL-23 to its receptor on the surface of HEK-Blue™ IL-23 cells triggers a signaling cascade leading to the activation of STAT3 and the subsequent production of secreted embryonic alkaline phosphatase (SEAP). This can be readily assessed using QUANTI-Blue™ Solution, a SEAP detection reagent.
HEK-Blue™ IL-23 cells were cultured as described by Invivogen.
On the first day of assay 10 μL of the HEK-Blue IL-23 cell suspension (final concentration: 10,000 cells/well) and 10 μl of serially diluted compound solutions were dispensed into a 384-well assay plate. After pre-incubation of the reaction mixtures at 37° C./5% CO2/95% humidity for 60 minutes, 10 μl of the humanIL-23 cytokine (final concentration: 0.25 ng/ml) was added to each well for the STAT3 signaling activation. The plate was incubated overnight at 37° C./5% CO2/95% humidity.
On the second day 20 μl per well of Quanti-Blue detection solution (prepared according to the manufacture instruction) was dispensed into a new 384-well plate and followed by the transfer of 5 μl supernatant of the overnight incubated cell/sample mixtures. After incubation of 45 min at room temperature signals were measured with PHERAstar (BMG) at OD 620-655 nm.
Dose response data were fitted with XLfit.

[3] = pH 6.5 (100 mM phosphate buffer)
[4] = pH 7.4 (100 mM phosphate buffer)

Row | IC50 (human IL-23R) [nM] | Conc. [mg/ml] 0 h ([1]; pH 1.2 (100 mM HCl)) [mg/mL] | Conc. [mg/ml] 24 h 37° C. ([1]; pH 1.2 (100 mM HCl)) [mg/mL] | Mass Balance [%] 24 h 37° C. ([1]; pH 1.2 (100 mM HCl)) [%] | Relative Purity Loss [%] 24 h 37° C. ([1]; pH 1.2 (100 mM HCl)) [%] | Conc. [mg/ml] 0 h [1, 3] [mg/mL] | Conc. [mg/ml] 24 h 37° C. [1, 3] [mg/mL] | Mass Balance [%] 24 h 37° C. [1, 3] [%] | Relative Purity Loss [%] 24 h 37° C. [1, 3] [%] | Conc. [mg/ml] 0 h [1, 4] [mg/mL] | Conc. [mg/ml] 24 h 37° C. [1, 4] [mg/mL] | Mass Balance [%] 24 h 37° C. [1, 4] [%] | Relative Purity Loss [%] 24 h 37° C. [1, 4] [%] | IC50 [2] [nM] | Compound
1 | 2.47 | 1.1 | 0.7 | −9.6 | 26.5 | 1.5 | 1.5 | −3.9 | 0.3 | 1.1 | 1.0 | −2.3 | 4.7 | 850 | COc1ccc(C[C@@H]2NC(=O)[C@H](CC(C)C)NC(=O)[C@H](CCC(N)=O)NC(=O)[C@H](Cc3c[nH]c4ccccc34)NC(=O)[C@H]([C@@H](C)O)NC(=O)[C@H](CC(N)=O)NC(=O)[C@H](NC(C)=O)CCCCNC(=O)C[C@@H](C(=O)N[C@@H](CC(N)=O)C(=O)N[C@@H](CC(N)=O)C(N)=O)NC(=O)C(C)(C)NC(=O)[C@H](Cc3cccc4ccccc34)NC2=O)cc1 [compound 7] (Ac-[dK]NTWQLY(Me)[1Nal][Aib]DNN-NH2; lactam 1-10)
2 | 2.74 | 0.2 | 0.2 | −2.5 | 26.2 | 0.2 | 0.2 | 4.1 | −1.4 | 0.2 | 0.2 | 4.6 | 2.0 | 943 | COc1ccc(C[C@@H]2NC(=O)[C@H](C)NC(=O)[C@H](CCC(N)=O)NC(=O)[C@H](Cc3c[nH]c4ccccc34)NC(=O)[C@H]([C@@H](C)O)NC(=O)[C@H](CC(N)=O)NC(=O)[C@H](NC(C)=O)CCCCNC(=O)C[C@@H](C(=O)N[C@@H](CC(N)=O)C(=O)N[C@@H](CC(N)=O)C(N)=O)NC(=O)C(C)(C)NC(=O)[C@H](Cc3cccc4ccccc34)NC2=O)cc1 [compound 8] (Ac-[dK]NTWQAY(Me)[1Nal][Aib]DNN-NH2; lactam 1-10)
3 | 1.55 | 1.5 | 1.1 | −3.4 | 23.2 | 1.2 | 1.1 | −3.6 | 1.1 | 1.4 | 1.3 | −3.1 | 3.6 | 430 | COc1ccc(C[C@@H]2NC(=O)[C@H](CCCNC(=N)N)NC(=O)[C@H](CCC(N)=O)NC(=O)[C@H](Cc3c[nH]c4ccccc34)NC(=O)[C@H]([C@@H](C)O)NC(=O)[C@H](CC(N)=O)NC(=O)[C@H](NC(C)=O)CCCCNC(=O)C[C@@H](C(=O)N[C@@H](CC(N)=O)C(=O)N[C@@H](CC(N)=O)C(N)=O)NC(=O)C(C)(C)NC(=O)[C@H](Cc3ccc4ccccc4c3)NC2=O)cc1 [compound 3] (Ac-[dK]NTWQRY(Me)[2Nal][Aib]DNN-NH2; lactam 1-10)
4 | 1.04 |  |  |  |  |  |  |  |  |  |  |  |  | 426 | COc1ccc(C[C@@H]2NC(=O)[C@H](CCCNC(=N)N)NC(=O)[C@H](CCC(N)=O)NC(=O)[C@H](Cc3c[nH]c4ccccc34)NC(=O)[C@H]([C@@H](C)O)NC(=O)[C@H](CC(N)=O)NC(=O)[C@H](NC(C)=O)CCCCNC(=O)C[C@@H](C(=O)N[C@@H](CC(N)=O)C(=O)N[C@@H](CC(N)=O)C(N)=O)NC(=O)C(C)(C)NC(=O)[C@H](Cc3ccc4ccccc4c3)NC2=O)cc1 [compound 15] (Ac-[dK]NTWQRY(Me)[2Nal][Aib]DNN-NH2; lactam 1-10)
5 | 1.47 |  |  |  |  |  |  |  |  |  |  |  |  | 221 | COc1ccc(C[C@@H]2NC(=O)[C@H](CCCNC(=N)N)NC(=O)[C@H](CCC(N)=O)NC(=O)[C@H](Cc3c[nH]c4ccccc34)NC(=O)[C@H]([C@@H](C)O)NC(=O)[C@H](CC(N)=O)NC(=O)[C@@H](NC(C)=O)CCCCNC(=O)C[C@@H](C(=O)N[C@@H](CC(N)=O)C(=O)N[C@@H](CC(N)=O)C(N)=O)NC(=O)C3(CCOCC3)NC(=O)[C@H](Cc3ccc4ccccc4c3)NC2=O)cc1 [compound 41] (Ac-KNTWQRY(Me)[2Nal][Thp]DNN-NH2; lactam 1-10)
6 | 1.95 |  |  |  |  |  |  |  |  |  |  |  |  | 432 | COc1ccc(C[C@@H]2NC(=O)[C@H](CCCNC(=N)N)NC(=O)[C@H](CCC(N)=O)NC(=O)[C@H](Cc3c[nH]c4ccccc34)NC(=O)[C@H]([C@@H](C)O)NC(=O)[C@H](CC(N)=O)NC(=O)[C@H](NC(C)=O)CCCCNC(=O)CC[C@@H](C(=O)N[C@@H](CC(N)=O)C(=O)N[C@@H](CC(N)=O)C(N)=O)NC(=O)C(C)(C)NC(=O)[C@H](Cc3ccc4ccccc4c3)NC2=O)cc1 [compound 5] (Ac-[dK]NTWQRY(Me)[2Nal][Aib]ENN-NH2; lactam 1-10)
7 | 2.68 |  |  |  |  |  |  |  |  |  |  |  |  | 320 | COc1ccc(C[C@@H]2NC(=O)C(C)(C)NC(=O)[C@H](CCC(N)=O)NC(=O)[C@H](Cc3c[nH]c4ccccc34)NC(=O)[C@H]([C@@H](C)O)NC(=O)[C@H](CC(N)=O)NC(=O)[C@H](NC(C)=O)CCCCNC(=O)C[C@@H](C(=O)N[C@@H](CC(N)=O)C(=O)N[C@@H](CC(N)=O)C(N)=O)NC(=O)C(C)(C)NC(=O)[C@H](Cc3ccc4ccccc4c3)NC2=O)cc1 [compound 32] (Ac-[dK]NTWQ[Aib]Y(Me)[2Nal][Aib]DNN-NH2; lactam 1-10)
8 | 15.9 |  |  |  |  |  |  |  |  |  |  |  |  | 10000 | COc1ccc(C[C@@H]2NC(=O)[C@H](C(C)C)NC(=O)[C@H](CCC(N)=O)NC(=O)[C@H](Cc3c[nH]c4ccccc34)NC(=O)[C@H]([C@@H](C)O)NC(=O)[C@H](CC(N)=O)NC(=O)[C@H](NC(C)=O)CCCCNC(=O)C[C@@H](C(=O)N[C@@H](CC(N)=O)C(=O)N[C@@H](CC(N)=O)C(N)=O)NC(=O)C(C)(C)NC(=O)[C@H](Cc3cccc4ccccc34)NC2=O)cc1 [compound 20] (Ac-[dK]NTWQVY(Me)[1Nal][Aib]DNN-NH2; lactam 1-10)
9 | 1.21 |  |  |  |  |  |  |  |  |  |  |  |  | 385 | COc1ccc(C[C@@H]2NC(=O)[C@H](CCCNC(=N)N)NC(=O)[C@H](CCC(N)=O)NC(=O)[C@H](Cc3cn(C)c4ccccc34)NC(=O)[C@H]([C@@H](C)O)NC(=O)[C@H](CC(N)=O)NC(=O)[C@H](NC(C)=O)CCCCNC(=O)C[C@@H](C(=O)N[C@@H](CC(N)=O)C(=O)N[C@@H](CC(N)=O)C(N)=O)NC(=O)[C@](C)(CC(C)C)NC(=O)[C@H](Cc3ccc4ccccc4c3)NC2=O)cc1 [compound 24] (Ac-[dK]NT[Trp(1-Me)]QRY(Me)[2Nal][αMeL]DNN-NH2; lactam 1-10)
